Measurements from patent US10597388B2, “Pyridazinone herbicides” (FMC CORPORATION, priority 2014, dated 2020).

Assays:
Assay type in all cases: in vivo
[1] = system: ryegrass, Italian (Italian ryegrass, Lolium multiflorum); experiment: Test A greenhouse herbicide test, pre- and postemergence
Method in brief: (§1)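 Visual injury ratings, 0 (no effect) to 100 (complete control), versus untreated plants after roughly 10 d in a greenhouse. Compounds, formulated in a surfactant-containing non-phytotoxic solvent, were sprayed on loam–sand soil after sowing (pre) or on one- to two-leaf plants 2–10 cm tall (post).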

[2] = system: barnyardgrass (Echinochloa crus-galli); experiment: as above
Method in brief: as §1

[3] = system: corn (Zea mays); experiment: as above; settings: Postemergence; for Plant response rating, Corn: 125 g ai/ha; for Corn plant response rating: 500 g ai/ha, 0 to 100 scale, 0 is no effect, 100 is complete control
Method in brief: as §1

[4] = system: kochia (Kochia scoparia); experiment: as above
Method in brief: as §1

[5] = system: foxtail, giant (giant foxtail, Setaria faberii); experiment: as above
Method in brief: as §1

[6] = system: pigweed (Amaranthus retroflexus); experiment: as above
Method in brief: as §1

[7] = system: ragweed (common ragweed, Ambrosia elatior); experiment: as above
Method in brief: as §1

[8] = system: wheat (Triticum aestivum); experiment: as above; settings: Postemergence; for Plant response rating, Wheat: 125 g ai/ha, 0 to 100 scale where 0 is no effect and 100 is complete control; for Wheat plant response rating: 500 g ai/ha, 0 to 100 scale, 0 is no effect, 100 is complete control
Method in brief: as §1

[9] = system: barnyardgrass (Echinochloa crus-galli); experiment: Test C greenhouse herbicide test, pre- and postemergence
Method in brief: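 Greenhouse pots; pre-em on seeded loam:sand blend, post-em on 2–18 cm plants (1–4 leaf) in sphagnum peat/vermiculite medium. Formulation: non-phytotoxic solvent + surfactant. Read-out: visual % control (0–100) vs controls at 13–15 d.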

[10] = system: galium (catchweed bedstraw, Galium aparine); experiment: Test A greenhouse herbicide test, postemergence; settings: for Plant response rating, Galium: 125 g ai/ha; for Galium plant response rating: 500 g ai/ha, 0 to 100 scale, 0 is no effect, 100 is complete control
Method in brief: (§2)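 Scores are visual injury ratings from 0 (no effect) to 100 (complete control) versus untreated plants, taken roughly 10 d after treatment in the greenhouse. Treatment was postemergence, on one- to two-leaf plants 2–10 cm high growing in a loam soil/sand mix.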

[11] = system: blackgrass (Alopecurus myosuroides); experiment: Test A greenhouse herbicide test, postemergence; settings: for Plant response rating, Blackgrass: 125 g ai/ha; for Blackgrass plant response rating: 500 g ai/ha, 0 to 100 scale, 0 is no effect, 100 is complete control
Method in brief: as §2

[12] = Postemergence, 125 g ai/ha, 0 to 100 scale where 0 is no effect and 100 is complete control
[13] = Postemergence, 500 g ai/ha, 0 to 100 scale, 0 is no effect, 100 is complete control
[14] = Preemergence, 125 g ai/ha, 0 to 100 scale where 0 is no effect and 100 is complete control
[15] = Preemergence, 500 g ai/ha, 0 to 100 scale, 0 no effect, 100 complete control
[16] = 0 to 100 scale where 0 is no effect and 100 is complete control
[17] = Postemergence, 31 g ai/ha, 0 to 100 scale (0 no effect, 100 complete control)
[18] = Postemergence, 125 g ai/ha, scale 0 to 100, 0 is no effect, 100 is complete control
[19] = postemergence, 62 g ai/ha, scale 0 to 100, 0 no effect, 100 complete control
[20] = Postemergence, 125 g ai/ha, visual rating after approx. 10 d, 0 to 100 scale (0 no effect, 100 complete control)
[21] = visual rating after approx. 10 d, 0 to 100 scale (0 no effect, 100 complete control)
[22] = Postemergence, 250 g ai/ha, scale 0 to 100, 0 no effect, 100 complete control, 13 to 15 d
[23] = Preemergence, 31 g ai/ha, scale 0 to 100, 0 is no effect, 100 is complete control
[24] = Preemergence, 62 g ai/ha, scale 0 to 100, 0 is no effect, 100 is complete control
[25] = Preemergence, 125 g ai/ha, scale 0 to 100, 0 is no effect, 100 is complete control
[26] = Preemergence, 250 g ai/ha, scale 0 to 100 (0 no effect, 100 complete control)
[27] = Preemergence, 500 g ai/ha, 0 to 100 scale where 0 is no effect and 100 is complete control

SMILES	Plant response rating, Ryegrass, Italian [1, 12]	Ryegrass, Italian plant response rating [1, 13]	Ryegrass, Italian plant response rating [1, 14]	Barnyardgrass plant response rating [2, 13]	Barnyardgrass plant response rating [2, 14]	Corn plant response rating [3]	Kochia plant response rating [4, 13]	Kochia plant response rating [4, 14]	Foxtail, Giant plant response rating [5, 13]	Foxtail, Giant plant response rating [5, 14]	Pigweed plant response rating [6, 13]	Pigweed plant response rating [6, 14]	Ragweed plant response rating [7, 13]	Ragweed plant response rating [7, 14]	Plant response rating, Wheat [8]	Wheat plant response rating [8]	Barnyardgrass plant response rating [9, 17]	Plant response rating, Barnyardgrass [9, 18]	Barnyardgrass plant response rating [9, 19]	Galium plant response rating [10]	further results
COc1ccc2ccccc2c1-c1c(O)c(C)nn(C)c1=O [Compound 40]	90	90	60	60	10	10	90	50	80	40	100	90	90	30	0	50	5	25	15	100	Plant response rating, Ryegrass, Italian [1, 15]: 100; Plant response rating, Barnyardgrass [2, 12]: 10; Plant response rating, Barnyardgrass [2, 15]: 50; Plant response rating, Corn [3, 16]: 0; Plant response rating, Kochia [4, 12]: 80; Plant response rating, Kochia [4, 15]: 80; Plant response rating, Foxtail, Giant [5, 12]: 60; Plant response rating, Foxtail, Giant [5, 15]: 70; Plant response rating, Pigweed [6, 12]: 80; Plant response rating, Pigweed [6, 15]: 100; Plant response rating, Ragweed [7, 12]: 70; Plant response rating, Ragweed [7, 15]: 80; Plant response rating, Barnyardgrass ([9]; Postemergence, 16 g ai/ha, scale 0 to 100 (0 no effect, 100 complete control)): 5; Plant response rating, Galium [10, 16]: 90; Plant response rating, Blackgrass [11, 16]: 60; Blackgrass plant response rating [11]: 80
COc1nn(C)c(=O)c(-c2c(C)ccc3ccccc23)c1OC(=O)OC(C)C [Compound 36]	70	80	70	80	0	40	100	10	90	80	90	100	90	80	20	30	15	35	25	100	Plant response rating, Ryegrass, Italian [1, 15]: 70; Plant response rating, Barnyardgrass [2, 20]: 50; Plant response rating, Barnyardgrass [2, 15]: 30; Plant response rating, Corn [3, 21]: 20; Plant response rating, Kochia [4, 20]: 90; Plant response rating, Kochia [4, 15]: 80; Plant response rating, Foxtail, Giant [5, 20]: 80; Plant response rating, Foxtail, Giant [5, 15]: 90; Plant response rating, Pigweed [6, 20]: 90; Plant response rating, Pigweed [6, 15]: 100; Plant response rating, Ragweed [7, 20]: 90; Plant response rating, Ragweed [7, 15]: 90; Plant response rating, Barnyardgrass [9, 22]: 40; Plant response rating, Barnyardgrass [9, 23]: 10; Plant response rating, Barnyardgrass [9, 24]: 25; Plant response rating, Barnyardgrass [9, 25]: 65; Barnyardgrass plant response rating [9, 26]: 70; Plant response rating, Galium [10, 21]: 100; Plant response rating, Blackgrass [11, 21]: 60; Blackgrass plant response rating [11]: 80
Cc1cc(C)c2sc(C)c(-c3c(OC(=O)OCCCl)c(C)nn(C)c3=O)c2c1 [Compound 85]	90	90	100	80	70	0	70	0	90	100	100	100	90	90	0	0	25	40	45	100	Plant response rating, Ryegrass, Italian [1, 27]: 100; Plant response rating, Barnyardgrass [2, 12]: 30; Plant response rating, Barnyardgrass [2, 27]: 100; Plant response rating, Corn [3, 16]: 0; Plant response rating, Kochia [4, 12]: 30; Plant response rating, Kochia [4, 27]: 30; Plant response rating, Foxtail, Giant [5, 12]: 90; Plant response rating, Foxtail, Giant [5, 27]: 100; Plant response rating, Pigweed [6, 12]: 90; Plant response rating, Pigweed [6, 27]: 100; Plant response rating, Ragweed [7, 12]: 90; Plant response rating, Ragweed [7, 27]: 90; Plant response rating, Barnyardgrass [9, 22]: 50; Plant response rating, Barnyardgrass [9, 23]: 35; Plant response rating, Barnyardgrass [9, 24]: 60; Plant response rating, Barnyardgrass [9, 25]: 80; Barnyardgrass plant response rating [9, 26]: 90; Plant response rating, Galium [10, 16]: 90; Plant response rating, Blackgrass [11, 16]: 90; Blackgrass plant response rating [11]: 90
CCOC(=O)Oc1c(C)nn(C)c(=O)c1-c1c(C)sc2c(C)cc(C)cc12 [Compound 83]	90	100	100	90	70	0	100	30	100	100	100	100	100	90	0	20	25	30	25	100	Plant response rating, Ryegrass, Italian [1, 27]: 100; Plant response rating, Barnyardgrass [2, 12]: 40; Plant response rating, Barnyardgrass [2, 27]: 100; Plant response rating, Corn [3, 16]: 0; Plant response rating, Kochia [4, 12]: 70; Plant response rating, Kochia [4, 27]: 100; Plant response rating, Foxtail, Giant [5, 12]: 90; Plant response rating, Foxtail, Giant [5, 27]: 100; Plant response rating, Pigweed [6, 12]: 100; Plant response rating, Pigweed [6, 27]: 100; Plant response rating, Ragweed [7, 12]: 90; Plant response rating, Ragweed [7, 27]: 100; Plant response rating, Barnyardgrass [9, 22]: 45; Plant response rating, Barnyardgrass [9, 23]: 50; Plant response rating, Barnyardgrass [9, 24]: 70; Plant response rating, Barnyardgrass [9, 25]: 85; Barnyardgrass plant response rating [9, 26]: 90; Plant response rating, Galium [10, 16]: 100; Plant response rating, Blackgrass [11, 16]: 90; Blackgrass plant response rating [11]: 100
